Assay [1] addresses T1, Interleukin-1 beta (Homo sapiens, UniProt P01584).
The target in assay [2] is T1, Interleukin-1 beta. This is another data set of the same source.
Description: Antagonist activity at human IL-1 beta assessed as inhibition of interaction of IL-1 beta/IL-1R1 expressed in NHDF cells by measuring reduction in IL-6 production preincubated with IL-1 beta for 1 hr followed by incubation with cells and measured after 6 hrs by ELISA
Assay [3] addresses T1, Interleukin-1 beta. This is another data set of the same source.
Description: Antagonist activity at human IL-1 beta assessed as inhibition of interaction of IL-1beta/IL-1R1 expressed in HEK293-Blue cells by measuring reduction in SEAP activity preincubated with IL-1 beta for 1 hr followed by incubation with cells and measured after overnight by reporter gene assay
For assay [4], the target named is T1, Interleukin-1 beta. This is another data set of the same source.
Description: Antagonist activity at human recombinant His-tagged wild type IL-1 beta assessed as inhibition of IL-1 beta/Alexa 647 labeled human IL-1R1 (1 to 332) interaction preincubated with IL-1 beta for 1 hr followed by IL-1R1 addition and measured after 1 hr by TR-FRET assay
The target of another assay is T2, Interleukin-1 alpha (Homo sapiens, UniProt P01583).
T2 sequence (P01583 whole entry): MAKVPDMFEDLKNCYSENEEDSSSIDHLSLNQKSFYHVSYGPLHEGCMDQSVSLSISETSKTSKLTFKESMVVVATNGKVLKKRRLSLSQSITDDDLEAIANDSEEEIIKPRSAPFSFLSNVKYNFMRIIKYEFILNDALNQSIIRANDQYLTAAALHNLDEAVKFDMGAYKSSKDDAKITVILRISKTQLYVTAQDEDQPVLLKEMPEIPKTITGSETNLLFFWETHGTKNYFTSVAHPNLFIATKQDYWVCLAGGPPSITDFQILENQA

Bridge positions count the residues as written; N and C are the ends. Peptide text beside a SMILES is read from it.

T1 sequence (P01584 117-269 limits assumed): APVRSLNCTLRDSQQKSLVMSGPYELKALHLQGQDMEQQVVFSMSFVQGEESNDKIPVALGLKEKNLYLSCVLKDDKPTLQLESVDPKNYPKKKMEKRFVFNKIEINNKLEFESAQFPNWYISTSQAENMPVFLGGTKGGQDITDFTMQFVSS
Description for Interleukin-1 alpha: Antagonist activity at human recombinant His-tagged wild type IL-1 alpha assessed as inhibition of IL-1 alpha/Alexa 647 labeled human IL-1R1 (1 to 332) interaction preincubated with IL-1 alpha for 1 hr followed by IL-1R1 addition and measured after 1 hr by TR-FRET assay

Turning to `OC(c1ccc(OC(F)F)cc1)(c1cccc(Br)c1)c1cc[nH]n1` (racemic), the Ki (usually a measure of affinity in units of concentration, obtained from inhibition or displacement) at Interleukin-1 beta [1] is greater than 1000 µM. As for `Cc1ccc2c(c1)NC(=O)[C@@]2(c1cn[nH]c1)c1cc(-c2ccc(C(=O)O)cc2C(=O)O)ccc1O`, the values for the IC50 at Interleukin-1 beta [2] and against Interleukin-1 beta [3] were 7.9 µM and 5.3 µM, respectively. At Interleukin-1 beta [1], this compound displayed an inhibition constant Ki of less than 10 µM. As for `CC(C)c1cccc(-c2cc(C(=O)O)cn3cc(C(=O)N4CCN(S(=O)(=O)c5ccccc5)CCC4C(=O)NCCN4CCOCC4)nc23)c1` (configuration not stated), at Interleukin-1 beta [4], the half-inhibitory concentration (IC50) (usually the concentration that inhibits the measured activity by half) was greater than 200 µM. For the compound `CC(C)c1cc(-c2cc(C(=O)O)cn3cc(C(=O)N4CCCN(S(=O)(=O)c5ccccc5)CC4)nc23)ccc1C=O`, the IC50 against Interleukin-1 alpha and on Interleukin-1 beta [4] was greater than 200 µM in each case. As for `CC(C)c1cc(-c2cc(C(=O)O)cn3cc(C(=O)N4CCN(S(=O)(=O)c5ccccc5)CC[C@@H]4C(=O)NCCN4CCOCC4)nc23)ccc1C=O`, the figures for the IC50 against Interleukin-1 alpha and at Interleukin-1 beta [4] were greater than 200 µM and 78.4 µM, respectively. Compound `CC(C)c1cc(-c2cc(C(=O)O)cn3cc(C(=O)N4CCN(S(=O)(=O)c5ccccc5)CCC4C(=O)NCCN4CCOCC4)nc23)ccc1C=O` (racemic) had a 50% inhibitory concentration (IC50) on Interleukin-1 beta [4] of 11 µM. Take `CC(C)c1cc(-c2cc(C(=O)O)cn3cc(C(=O)N4CCN(S(=O)(=O)c5ccccc5)CC[C@H]4C(=O)NCCN4CCOCC4)nc23)ccc1C=O`: the IC50 at Interleukin-1 alpha is 99 µM; at Interleukin-1 beta [4], 8.3 µM. On the same counts, the results for `NCCCC[C@H](NC(=O)CNC(=O)[C@@H]1CSCC(=O)N[C@@H](Cc2ccccc2)C(=O)N[C@@H](Cc2c[nH]c3ccccc23)C(=O)N[C@@H](CC(=O)O)C(=O)N[C@@H](CO)C(=O)N[C@@H](Cc2c[nH]c3ccccc23)C(=O)NCC(=O)N[C@@H](Cc2ccc(O)cc2)C(=O)N[C@@H](Cc2c[nH]c3ccccc23)C(=O)N[C@@H](Cc2ccc(O)cc2)C(=O)NCC(=O)N2CCC[C@H]2C(=O)N[C@@H](Cc2c[nH]c3ccccc23)C(=O)N[C@@H](CC(=O)O)C(=O)N1)C(N)=O` ({CH2CO}-FWDSWGYWYGPWDCGK-NH2; thioether N-14) are greater than 200 µM and 14 µM. On the same counts, the results for `O=Cc1ccc(-c2cc(C(=O)O)cn3cc(C(=O)N4CCN(S(=O)(=O)c5ccccc5)CC[C@H]4C(=O)NCCN4CCOCC4)nc23)cc1C(F)(F)F` are greater than 200 µM and 1.2 µM.

As to `Cc1cc(O)c(C(c2cc(C3CC(C(=O)O)C3)ccc2O)c2c[nH]nc2C(=O)O)cc1C` (racemic), the inhibitory constant (Ki) at Interleukin-1 beta [1] stood at 43 µM.

Source of the values: ChEMBL document CHEMBL5506044, “Ligandability Assessment of IL-1β by Integrated Hit Identification Approaches” (J Med Chem, 2024).
